From patent publication US20120149572A1, “USE OF AGROCHEMICAL MIXTURES FOR INCREASING THE HEALTH OF A PLANT” (BASF SE, priority 2009, published 2012) come the findings set out here.

The test system of this test is cotyledons. Briefly: Growth of excised cucumber cotyledons (fresh biomass) in treatment solution. The conditions noted are these: for Mean cotyledon biomass: 3 days in the dark at 25° C., 20 cotyledons per treatment; for Observed efficacy (%): % biomass increase compared to 0.5% DMSO control; for growth stimulation of the cotyledons: applied alone. It counts as in vivo, Cucumbers. The method, then: The effect of dicamba as an example for compound (I), pyraclostrobin as an example for compound (II) and the respective mixture comprising both compounds on the growth of cotyledons, as one indicator of a plant's health, was evaluated. Cucumbers were sown and germinated in the dark at 25° C. for 4 days. Subsequently, 20 cotyledons per treatment were cut and placed in a Petri dish containing 20 ml of the treatment solution. Control cotyledons were treated with the 0.5% DMSO solution. Following the incubation in the dark at 25° C. for 3 days the cotyledons were weight and the fresh biomass recorded (table 1).
The efficacy of the tested compounds was calculated as % of biomass increase compared to the control:
E=(a/b−1)*100 • a corresponds to the biomass (mg) of the treated cotyledons after incubation; • b corresponds to the biomass (mg) of untreated cotyledons after incubation (control).
The expected efficacies of the combinations of the active ingredients were estimated using Colby's formula (Colby, S. R., Calculating synergistic and antagonistic responses of herbicide combinations, Weeds, 15, pp. 20-22, 1967) and compared with the observed efficacies.
Colby's formula: E=x+y−x*y/100 • E expected efficacy, expressed in % of the untreated control, when using the mixture comprising the compounds A and B at the concentrations a and b; • x efficacy, expressed in % of the untreated control, when using compound A at the concentration a; • y efficacy, expressed in % of the untreated control, when using compound B at the concentration b.

For the compound `COC(=O)N(OC)c1ccccc1COc1ccn(-c2ccc(Cl)cc2)n1` [Pyraclostrobin, pyraclostrobin], the “growth stimulation of the cotyledons” value is reported as “no growth stimulation”. Further, under “2 ppm in 0.5% DMSO”, the “Mean cotyledon biomass” value is 67.7 mg. Besides, the “Observed efficacy (%)” value (2 ppm) is −3.9%.
For `COc1c(Cl)ccc(Cl)c1C(=O)O` [Dicamba, dicamba], the “growth stimulation of the cotyledons” value was “no growth stimulation”. Further, the “Mean cotyledon biomass” value (1.25 ppm in 0.5% DMSO) came out at 69.9 mg. Moreover, the “Observed efficacy (%)” value (1.25 ppm) was −0.8%.
